Experimental data published in patent US6855348B2, “Insecticidal composition derived from plants” (priority 2000, dated 2005).
Where “and” joins values, the source holds several entries; their conditions need not be identical. Equal entries are not always repeated. Where two headings read alike, the source gives them in different places.

How the values were obtained:
Dermatophagoides farinae = system: Dermatophagoides farinae
Experimental: (§1) American house dust mite (Dermatophagoides farinae) and European house dust mite (Dermatophagoide pteronyssinus) were maintained at 75±5% RH (relative humidity) at 25±1° C., and were provided a feed mixture of fish meal and multi-vitamins in a ratio of 1 to 1 on a 12.5×10.5×5 cm container.
(§2) The starting concentration is important for the primary screening of bioactive compounds from plant extracts and oils. […] 1 mg of the methanol extracts or oils were suspended with 40 μl of methanol and were transferred to a colorless microtube (2 ml). The microtube was vertically shaken several times to disperse the contents to the wall and cap of the microtube and it was placed in a freeze dryer for 1 hour in order to volatilize the solvent. Twenty-five mites were placed on the prepared microtube, and all treatment groups were transferred to an incubator kept at […]. Active mites only were selected with a fine brush under a microscope. Mortalities were determined with a microscope at 24 hours and 48 hours after treatment. […] All tests were replicated four or more times. The percentage mortality was determined and transformed to arcsine square-root values for analysis of variance (ANOVA). Treatment means were compared and separated by Scheffe's test at the P=0.05 (SAS Institute, 1996). Means (±standard error) of untransformed data are reported. Controls received 40 μl of methanol.

[1] = system: Dermatophagoides pteronyssinus
Experimental: as §1, §2

house dust mites = assay type: in vivo
Experimental: All tests were replicated four or more times. […] Means (±standard error) of untransformed data are reported. Controls received 40 μl of methanol.

[2] = system: mites inhabiting carpets and chairs; conditions: homes, cited from earlier work
Lasioderma serricorne = assay: Insecticidal activity test, treated filter paper in petri dish; assay type: in vivo; conditions: adults, 24 hours
Experimental: (§3) Stored-product pests used in the present invention were adult Lasioderma serricome Fab., adult Sitophilus oryzae L. and adult Callosobruchus chinensis L., and it was selected insects were not exposed to any insecticide. L. serricorne was bred in a beaker(10 cm diameter, 15 cm height) with wheat bran, S. oryzae was bred in a platic container(20×20×15 cm) with peanuts, and was bred in a plastic container(26×30×20 cm) with red beans. All insects were maintained at 28±1° C., 55±5% RH(relative humidity) and 16:8 hr(day:night) light condition.
(§4) Right after treatment, paper was transferred to hood and put in hood for about 2 minutes to completely evaporate solvent, and then, the above paper was put on paper treated with 20 adult pests in petri dish and this dish was covered with a lid. 24 hours after insecticide activity was investigated. To faacilitate handling of adult pests by their reducing activity, L. sericorne was put at −4° C. for 2 minutes, S. oryzae was used without this treatment, and C. chinensis was selected by using sucking tube. Healthy pests used in test were selected right before 6 hours of test. They were maintained at 28±1° C., 50-60% RH and 16:8 hr(day:night) light condition.
(§5) Insecticidal activity of salicylaldehyde against stored-product pests was investigated by the insecticidal test of Test 6. Test was repeated 25 times for adult S. oryzae, and 10 times for adult L. serricorne and adult C. chinensis. 10 adult pests were used for each test.

Callosobruchus chinensis = assay: as above; assay type: in vivo, Callosobruchus chinensis L.; conditions: adults, 24 hours
Experimental: as §3, §4, §5

Sitophilus oryzae = assay: as above; assay type: in vivo, Sitophilus oryzae L.; conditions: adults, 24 hours
Experimental: as §3, §4, §5

stored-product pests = assay: Insecticidal activity test, statements not resolved by pest species; assay type: in vivo; conditions: concentration of 1.25 mg
Experimental: as §3, §4

[3] = 0.5 mg/tube, 48 hr, listed as Butyl isothiocyanate

CCCCN=C=S [butyl isothiocyanate]
Mortality (Means ± standard error, %) (Dermatophagoides farinae; 0.125 mg/tube, 24 hr): 1.0 ± 1.0 d % | Mortality (Means ± standard error, %) (Dermatophagoides farinae; 0.125 mg/tube, 48 hr): 2.0% | Mortality (Means ± standard error, %) (Dermatophagoides farinae; 0.2 mg/tube, 24 hr): 1.0 ± 1.0 e % | Mortality (Means ± standard error, %) (Dermatophagoides farinae; 0.2 mg/tube, 48 hr): 3.0% | Mortality (Means ± standard error, %) (Dermatophagoides farinae; 0.25 mg/tube, 24 hr): 20.0 ± 1.6 c % | Mortality (Means ± standard error, %) (Dermatophagoides farinae; 0.25 mg/tube, 48 hr): 27.0% | Mortality (Means ± standard error, %) (Dermatophagoides farinae; 0.3 mg/tube, 24 hr): 26.0 ± 2.0 c % | Mortality (Means ± standard error, %) (Dermatophagoides farinae; 0.3 mg/tube, 48 hr): 34.0% | Mortality (Means ± standard error, %) (Dermatophagoides farinae; 0.4 mg/tube, 24 hr): 44.0 ± 2.8 b % | Mortality (Means ± standard error, %) (Dermatophagoides farinae; 0.4 mg/tube, 48 hr): 48.0% | Mortality (Means ± standard error, %) (Dermatophagoides farinae; 0.5 mg/tube, 24 hr): 84.0 ± 5.2 a % | Mortality (Means ± standard error, %) (Dermatophagoides farinae; 0.5 mg/tube, 48 hr): 94.0% | Mortality (Means ± standard error, %) (Dermatophagoides farinae; [3]): 97% | Mortality (Means ± standard error, %) (Dermatophagoides farinae; 1 mg/tube, 24 hr): 99.0 ± 1.0 a % | Mortality (Means ± standard error, %) (Dermatophagoides farinae; 1 mg/tube, 48 hr): 100 a % | Mortality (Means ± standard error, %) ([1]; 0.125 mg/tube, 24 hr): 1.0 ± 1.0 d % | Mortality (Means ± standard error, %) ([1]; 0.125 mg/tube, 48 hr): 2.0 ± 1.2 d % | Mortality (Means ± standard error, %) ([1]; 0.2 mg/tube, 24 hr): 7.0 ± 1.0 cd % | Mortality (Means ± standard error, %) ([1]; 0.2 mg/tube, 48 hr): 7.0 ± 1.0 cd % | Mortality (Means ± standard error, %) ([1]; 0.25 mg/tube, 24 hr): 21.0 ± 2.5 cd % | Mortality (Means ± standard error, %) ([1]; 0.25 mg/tube, 48 hr): 30.0 ± 8.7 bc % | Mortality (Means ± standard error, %) ([1]; 0.3 mg/tube, 24 hr): 32.0 ± 1.6 bc % | Mortality (Means ± standard error, %) ([1]; 0.3 mg/tube, 48 hr): 39.0 ± 2.5 bc % | Mortality (Means ± standard error, %) ([1]; 0.4 mg/tube, 24 hr): 39.0 ± 2.5 b % | Mortality (Means ± standard error, %) ([1]; 0.4 mg/tube, 48 hr): 45.0 ± 2.5 b % | Mortality (Means ± standard error, %) ([1]; 0.5 mg/tube, 24 hr): 92.0 ± 2.6 a % | Mortality (Means ± standard error, %) ([1]; 0.5 mg/tube, 48 hr): 96.0 ± 2.3 a % | Mortality (Means ± standard error, %) [1, 3]: 94% | Mortality (Means ± standard error, %) ([1]; 1 mg/tube, 24 hr): 99.0 a^c % | Mortality (Means ± standard error, %) ([1]; 1 mg/tube, 48 hr): 100 a % | acaricidal activity / mortality against two species of house dust mites (house dust mites; 1 mg/tube, 48 hours after treatment): 100% | acaricidal activity (house dust mites; at 0.4 mg and less): no significant acaricidal activity

CCN(CC)c1nc(C)cc(OP(=S)(OC)OC)n1 [pirimiphos-methyl]
control of mites inhabiting carpets ([2]; carpets): 60% | control of mites inhabiting chairs ([2]; chairs): 50%

O=Cc1ccccc1O [salicylaldehyde]
Mortality (Means ± standard error, %) (Lasioderma serricorne; 0.3125 mg/paper): 87% and 86.7 ± 3.3 b % | Mortality (Means ± standard error, %) (Lasioderma serricorne; 0.625 mg/paper): 100% | Mortality (Means ± standard error, %) (Lasioderma serricorne; 1.25 mg/paper): 100 a % | Mortality (Means ± standard error, %) (Lasioderma serricorne; 2.5 mg/paper): 100 a % | Mortality (Means ± standard error, %) (Lasioderma serricorne; 5 mg/paper): 100 a % | Mortality (Means ± standard error, %) (Dermatophagoides farinae; 0.125 mg/tube, 24 hr): 20.0 ± 1.6c % | Mortality (Means ± standard error, %) (Dermatophagoides farinae; 0.125 mg/tube, 48 hr): 27.0 ± 3.8c % | Mortality (Means ± standard error, %) (Dermatophagoides farinae; 0.2 mg/tube, 24 hr): 22.0 ± 1.2c % | Mortality (Means ± standard error, %) (Dermatophagoides farinae; 0.2 mg/tube, 48 hr): 28.0 ± 1.6c % | Mortality (Means ± standard error, %) (Dermatophagoides farinae; 0.25 mg/tube, 24 hr): 26.0 ± 2.0c % | Mortality (Means ± standard error, %) (Dermatophagoides farinae; 0.25 mg/tube, 48 hr): 34.02.6bc % | Mortality (Means ± standard error, %) (Dermatophagoides farinae; 0.3 mg/tube, 24 hr): 27.0 ± 1.9c % | Mortality (Means ± standard error, %) (Dermatophagoides farinae; 0.3 mg/tube, 48 hr): 37.0 ± 1.9bc % | Mortality (Means ± standard error, %) (Dermatophagoides farinae; 0.4 mg/tube, 24 hr): 44.0 ± 2.8b % | Mortality (Means ± standard error, %) (Dermatophagoides farinae; 0.4 mg/tube, 48 hr): 48.0 ± 2.8b % | Mortality (Means ± standard error, %) (Dermatophagoides farinae; 0.5 mg/tube, 24 hr): 99.0% | Mortality (Means ± standard error, %) (Dermatophagoides farinae; 0.5 mg/tube, 48 hr): 100a % | Mortality (Means ± standard error, %) (Dermatophagoides farinae; 1 mg/tube, 24 hr): 100a % | Mortality (Means ± standard error, %) (Dermatophagoides farinae; 1 mg/tube, 48 hr): 100a % | Mortality (Means ± standard error, %) ([1]; 0.125 mg/tube, 24 hr): 0e % | Mortality (Means ± standard error, %) ([1]; 0.125 mg/tube, 48 hr): 0e % | Mortality (Means ± standard error, %) ([1]; 0.2 mg/tube, 24 hr): 6.0 ± 1.1d % | Mortality (Means ± standard error, %) ([1]; 0.2 mg/tube, 48 hr): 9.0 ± 1.0d % | Mortality (Means ± standard error, %) ([1]; 0.25 mg/tube, 24 hr): 7.0 ± 3.0d % | Mortality (Means ± standard error, %) ([1]; 0.25 mg/tube, 48 hr): 8.0 ± 2.8d % | Mortality (Means ± standard error, %) ([1]; 0.3 mg/tube, 24 hr): 22.0 ± 2.6c % | Mortality (Means ± standard error, %) ([1]; 0.3 mg/tube, 48 hr): 27.0 ± 2.5c % | Mortality (Means ± standard error, %) ([1]; 0.4 mg/tube, 24 hr): 44.0 ± 2.8b % | Mortality (Means ± standard error, %) ([1]; 0.4 mg/tube, 48 hr): 46.0 ± 2.6b % | Mortality (Means ± standard error, %) ([1]; 0.5 mg/tube, 24 hr): 89.0% | Mortality (Means ± standard error, %) ([1]; 0.5 mg/tube, 48 hr): 92.0 ± 1.6a % | Mortality (Means ± standard error, %) ([1]; 1 mg/tube, 24 hr): 100a % | Mortality (Means ± standard error, %) ([1]; 1 mg/tube, 48 hr): 100a % | Mortality (Means ± standard error, %) (Callosobruchus chinensis; 0.15625 mg/paper): 68.0 ± 3.9 b % | Mortality (Means ± standard error, %) (Callosobruchus chinensis; 0.3125 mg/paper): 97% | Mortality (Means ± standard error, %) (Callosobruchus chinensis; 0.625 mg/paper): 100% | Mortality (Means ± standard error, %) (Callosobruchus chinensis; 1.25 mg/paper): 100 a % | Mortality (Means ± standard error, %) (Callosobruchus chinensis; 2.5 mg/paper): 100 a % | Mortality (Means ± standard error, %) (Callosobruchus chinensis; 5 mg/paper): 100 a % | Mortality (Means ± standard error, %) (Sitophilus oryzae; 0.3125 mg/paper): 7.0 ± 2.1 b % | Mortality (Means ± standard error, %) (Sitophilus oryzae; 0.625 mg/paper): 97% | Mortality (Means ± standard error, %) (Sitophilus oryzae; 1.25 mg/paper): 100 a % | Mortality (Means ± standard error, %) (Sitophilus oryzae; 2.5 mg/paper): 100 a % | Mortality (Means ± standard error, %) (Sitophilus oryzae; 5 mg/paper): 100 a % | insecticidal activity against three species (stored-product pests): 100%
